The nature of data set [1]: Molar enthalpy of transition or fusion. The note with it: Crystal; DSC.
The conditions of data set [2]: Crystal; for Normal melting temperature: DTA.
Data set [3] is described as follows: molar enthalpy of vaporization or sublimation. The note with it: 298.15 K; Crystal; Calver Calorimeter- drop method.

Numbers after ± are expanded uncertainties.

As to `O=C1CSc2ccccc2N1` [2H-1,4-benzothiazin-3(4H)-one], the “Molar enthalpy of transition or fusion” value in data set [1] amounted to 6.04 ± 0.143 kcal/mol. Besides, the “molar enthalpy of sublimation” value in data set [2] (298.15 K, Calver Calorimeter- drop method) was found to be 28.2 ± 1.82 kcal/mol. For the same molecule, the Normal melting temperature in data set [2] was 178.24 ± 0.39 °C.
`O=c1[nH]sc2ccccc12` [1,2-benzisothiazol-3(2H)-one]: the “Molar enthalpy of transition or fusion” value in data set [1] was found to be 4.99 ± 0.117 kcal/mol. In data set [3], the molar enthalpy worked out at 26.9 ± 1.2 kcal/mol. Moreover, the Normal melting temperature in data set [2] came out at 155.64 ± 0.39 °C.
